Laboratory results as given in US20240247253A1, “PRODUCTION METHOD OF POLYPEPTIDE, TAG, EXPRESSION VECTOR, EVALUATION METHOD OF POLYPEPTIDE, PRODUCTION METHOD OF NUCLEIC ACID DISPLAY LIBRARY, AND SCREENING METHOD” (FUJIFILM Corporation, priority 2021, published 2024).

What was measured:
[1] = system: cell-free peptide synthesis system derived from Escherichia coli; experiment: Cell-free biosynthesis of the integrin binding peptide fusion protein with tag, reaction time 10 minutes, ELISA; format: biochemical; settings: for Biosynthesis amount of fusion protein: relative value, control without tag = 1, reaction time 10 minutes, fusion protein SEQ ID NO: 5, SKIK encoded by SEQ ID NO: 110
Procedure: The cell-free biosynthesis of the polypeptide was carried out in a translation solution containing a template DNA, PUREfrex 2.0 (GeneFrontier, PF201-0.25-5), and Aminoacyl tRNA (1). 1.25 μL (62.5 ng) of the template DNA prepared to 50 ng/μL, 2.5 μL of PUREfrex 2.0 Solution I, 0.25 μL of Solution II, 0.5 μL of Solution III, and 0.5 μL of Aminoacyl tRNA (1) were mixed and mixture was subjected to a reaction at 37° ° C. for 1 hour.
The amount of the biosynthesized polypeptide was measured by ELISA. 50 ng of Recombinant Human Integrin αVβ3 (R&D systems, 3050-AV-050) was immobilized in each well of a 96-well plate and blocked with Blocker Casein in PBS (Thermo, 37528), and then a cell-free biosynthesis solution diluted with Can Get Signal Immunoreaction Enhancer Solution I (TOYOBO, NKB-101) containing 5 mmol/L MgCl2 was added thereto, and the mixture was subjected to a reaction at room temperature for 3 hours. After washing with 5 mmol/L MgCl2/0.05% Tween 20-containing phosphate buffered saline (PBS), an anti-Myc antibody (Cell Signaling, 14038S) diluted with Can Get Signal Immunoreaction Enhancer Solution II (TOYOBO, NKB-101) was added thereto, and the mixture was subjected to a reaction at room temperature for 2 hours. After washing with PBS containing 5 mmol/L MgCl2/0.05% Tween 20, Super Signal ELISA Femto Substrate (Thermo, 37075) was added thereto, and the luminescence was measured. The amount of the fusion protein in the cell-free biosynthesis solution was calculated based on a calibration curve created from the fusion protein having a known concentration. The luminescence measurement was performed twice, and the average value of the amounts of the fusion protein was calculated. Table 2-1 and Table 2-2 show relative values of the biosynthesis amounts of respective fusion proteins in a case where the amount of the fusion protein of the control example was set to the reference value 1.
As a comparative control, a SKIK tag represented by SEQ ID NO: 107 was selected. The polypeptide to be biosynthesized is the fusion protein containing the integrin binding peptide, as in Example 1.
Using a template DNA including DNA sequences (SEQ ID NOs: 73 to 98) encoding VKKX tags represented by SEQ ID NOs: 27 to 52 produced in Example 1, and a DNA sequence (SEQ ID NO: 110) encoding a SKIK tag represented by SEQ ID NO: 107 produced in Example 2, the biosynthesis reaction was performed in the same manner as in Example 1 by setting the reaction time to 10 minutes. In the same manner in Example 1, the fusion protein was expressed by the cell-free peptide synthesis system and quantified by ELISA. The measurement was performed twice, and the average value of the amounts of the fusion protein was calculated. […] As control example used in Example 1, the control example of the reference value 1 has a form in which the base sequence (SEQ ID NO: 6) encoding the fusion protein is arranged immediately after the start codon ATG.

[2] = system: cell-free peptide synthesis system derived from Escherichia coli; experiment: Cell-free biosynthesis of DHFR partial sequence-HiBiT fusion proteins with tag, 10 minutes, Nano Glo HiBiT quantification; format: biochemical
Source text: Regarding the effect of increasing the biosynthesis amount of the polypeptide by the tag (VKKTKT tag) represented by SEQ ID NO: 27, the influence of the length of the polypeptide to be synthesized was examined. The polypeptide to be biosynthesized is a fusion protein containing a partial sequence of dihydrofolate reductase (DHFR) and a luminescent (HiBiT) tag.
A fusion protein in which a partial sequence of DHFR and a HiBiT tag were linked in this order was designed. Gly-Gly-Ser was inserted as a spacer between the partial sequence of DHFR and the HiBiT tag. The amino acid sequences of these fusion proteins are set forth in SEQ ID NOs: 113 and 114, and these fusion proteins are a fusion protein (80 amino acid length) of the amino acids ranging to the amino acid at position 66 from the N-terminal of DHFR with a HiBiT tag and a fusion protein (100 amino acid length) of the amino acids ranging to the amino acid at position 86 from the N-terminal of DHFR with a HiBiT tag. The base sequences encoding these fusion proteins are SEQ ID NOs: 115 and 116.
A base sequence encoding a tagged fusion protein in which methionine, a VKKTKT tag (SEQ ID NO: 27) or a SKIK tag (SEQ ID NO: 107), and a fusion protein (any of SEQ ID NO: 113 or 114) were linked in this order was designed. In this base sequence, a base sequence (SEQ ID NO: 73 or 110) encoding a VKKTKT tag or a SKIK tag is arranged immediately after the start codon ATG, and a base sequence (any of SEQ ID NO: 115 or 116) encoding a fusion protein is arranged immediately after the base sequence encoding the VKKTKT tag or the SKIK tag.
As a control example for evaluating the effect of the VKKTKT tag or the SKIK tag, a base sequence in which a base sequence (any of SEQ ID NO: 115 or 116) encoding each of fusion protein arranged immediately after the start codon ATG was designed.
The fusion protein was expressed using a cell-free peptide synthesis system similar to the cell-free peptide synthesis system used in Example 1 by setting the incubation time of biosynthesis to 10 minutes. The obtained fusion protein was quantified using Nano Glo HiBiT Lytic Detection System (Promega, N3040). The measurement was performed twice, and the average value of the amounts of the fusion protein was calculated. […] The control example of the reference value 1 has a form in which the base sequence (SEQ ID NO: 115 or 116) encoding the fusion protein is arranged immediately after the start codon ATG.

[3] = fusion protein SEQ ID NO 113, amino acid length 80, control without tag = 1
[4] = fusion protein SEQ ID NO 114, amino acid length 100, control without tag = 1

| Substance | Biosynthesis amount of fusion protein [1] | Biosynthesis amount of fusion protein [2, 3] | Biosynthesis amount of fusion protein [2, 4] | increase rate of expression level of the fusion protein ([1]; text of Example 3, incubation time of biosynthesis reaction 10 minutes) |
| --- | --- | --- | --- | --- |
| SEQ ID NO: 27: VKKX tag, amino acid sequence VKKTKT (VKKX Tag) | 12.81 | 1.67 | 1.24 | – |
| SEQ ID NO: 107: tag consisting of an amino acid sequence of SKIK, disclosed in WO2016/204198A; comparative control (SKIK Tag) [reference compound] | 1.27 | 1.13 | 0.73 | 1.3 times |
